The record followed here is patent US4980365A, “N-substituted-5,6-dimethoxy-1,2-benzisoxazole-3-propanamine and related compounds as analgesic and hypotensive agents” (Hoechst-Roussel Pharmaceuticals Inc., priority 1987, dated 1990).

By ED50 is commonly meant the midpoint of the dose-response relation. Usually IC50 stands for the concentration that gives 50% inhibition.

Read-outs that look alike come from different tables or passages of the source.

In assay [1] the test system is spontaneous hypertensive rat. Put plainly: Antihypertensive activity in the spontaneous hypertensive rat, indirect tail cuff method. It counts as in vivo. The conditions noted are these: at 50 mg/kg, p.o.; treated orally for three days, measured on the third day. On the procedure: Compounds of the present invention are also useful as antihypertensive agents due to their ability to depress blood pressure in mammals. Antihypertensive activity is measured in the spontaneous hypertensive rat by the indirect tail cuff method described in "Methods in Pharmacology", A. Schwartz, Ed., Vol. I, Appleton-Century Crofts, New York, N.Y., 1971, p. 135. In this procedure a group of five animals are treated orally for three days with the test compound in relation to a control group of the same number. The drop in blood pressure is measured on the third day following administration. The antihypertensive activities of some of the compounds, expressed as a decrease in mean arterial blood pressure (in mm Hg), are given in Table 2.

The test system of assay [2] is 2-phenyl-1,4-benzoquinone-induced writhing. Put plainly: 2-phenyl-1,4-benzoquinone-induced writhing test in mice (analgesic activity, phenylquinone writhing). In kind it is in vivo. The conditions noted are these: Mus musculus, sc, read-out: ED50 (Analgesic Activity, Phenylquinone Writhing). The text has this:
Compounds of this invention having formula I are useful as analgesic agents due to their ability to alleviate pain in mammals. […] Exptl. Biol. Med. […], 729 (1957)].
(Writhing tests count abdominal constrictions after an irritant is injected.)

Assay [3] has as its target α1-adrenergic receptor. Put plainly: [3H]-WB4101: α1-adrenergic receptor binding in rat brain. The conditions noted are these: rat brain membranes minus cerebella, 0.5 nM 3H-WB4101, pH 7.7, 15 minutes; read-out: [3H]-WB4101: α1-Adrenergic Receptor (IC50) Antagonist Activity.
Description: RECEPTOR BINDING IN RAT BRAIN
This in vitro [^3 H]-WB4101 receptor binding assay quantitates the primary blood pressure lowering effects through α1 -receptor blockade. […] WB4101 labels an antagonist binding site on the α1 -adrenoceptor, since it is preferentially displaced by antagonists while α-noradrenergic agonists preferentially displace the ^3 H-agonists
57.2 g Tris HCl 16.2 g Tris base q.s. to 1 liter (0.5M Tris buffer, pH 7.7 at 25° C.).
Make a 1:10 dilution in distilled H2 O (0.05M Tris Buffer, pH 7.7)
[Phenoxy-3-^3 H(N)]-WB4101, (2-(2,6-dimethoxyphenoxyethyl)aminomethyl-1,4-benzodioxane, (20-25 Ci/mmol) is obtained from New England Nuclear.
L-norepinephrine bitartrate is obtained from Sigma Chemical Co.
A 10 mM stock solution of norepinephrine is made up in 0.01N HCl and 20 micro liter added to three tubes to determine nonspecific binding. This yields a final concentration of 100 micro liter in the assay.
For most assays, a 1 mM stock solution is made up in a suitable solvent and serially diluted, such that the final concentration in the assay ranges from 10^-5 to 10^-8 M. Seven concentrations are usually used for each assay.
Male Wistar rats (100-150 g) are killed by decapitation and their brains rapidly removed. […]
Sample tubes are kept on ice for additions, then vortexed and incubated for 15 minutes at 15° C. […] The filters are counted in 10 ml of liquid scintillation cocktail. […]

Regarding `COc1cc2onc(CCCN3CCN(c4ccccc4OC)CC3)c2cc1OC` [3-[3-[4-(2-methoxyphenyl)-1-piperazinyl]propyl]-5,6-dimethoxy-1,2-benzisoxazole], in assay [1], the “Pressure Drop (decrease in mean arterial blood pressure)” value is 68 mmHg. In addition, the ED50 in assay [2] (mice) stood at 1.7 mg/kg.
For `COc1ccc([C@@H]2Sc3ccccc3N(CCN(C)C)C(=O)[C@@H]2OC(C)=O)cc1` [Diltiazem, reference compound], in assay [1], the “Pressure Drop (decrease in mean arterial blood pressure)” value came out at 39 mmHg.
Regarding `COc1cc2onc(CCCNCCc3ccccc3)c2cc1OC.Cl` [N-(2-phenylethyl)-5,6-dimethoxy-1,2-benzisoxazole-3-propanamine hydrochloride], the IC50 in assay [3] was 83 nM. Also, the “Pressure Drop (decrease in mean arterial blood pressure)” value in assay [1] was determined as 32 mmHg.
Take `COc1cc2onc(CCCNCCc3ccc(F)cc3)c2cc1OC.Cl` [N-[2-(4-fluorophenyl)ethyl]-5,6-dimethoxy-1,2-benzisoxazole-3-propanamine hydrochloride]: the ED50 in assay [2] (mice) was determined as 3.8 mg/kg.
Take `COc1cc2onc(CCCN(C)CCc3ccccc3)c2cc1OC.O=C(O)C(=O)O` [N-methyl-N-(2-phenylethyl)-5,6-dimethoxy-1,2-benzisoxazole-3-propanamine oxalate]: the 50% inhibitory concentration (IC50) in assay [3] worked out at 67 nM. For the same compound, the ED50 in assay [2] (mice) amounted to 13.6 mg/kg.
Consider `CC(C)=CCN1CCC2(C)c3cc(O)ccc3CC1C2C` (stereo not drawn) [pentazocine, reference compound], for which the ED50 in assay [2] is 1.3 mg/kg.
